Experimental data: patent US11261201B2 (priority 2018, dated 2022)
Values after ≈ are worked out from the molar mass of the structure shown. Counter-ions that a name gives are not always drawn. Like-named read-outs stand apart in the source and are kept apart here.

Key:
H37RvMA = assay: Tuberculosis Alamar Blue/Resazurin assay (MIC); type: cell-based; conditions: read-out: WT H37Rv MTB Activity
E. coli = assay: Gram negative MIC protocol (OD600, LB, 24 h); conditions: Escherichia coli
Experimental: (§1) Overnight bacterial cultures were grown in LB with no added antibiotics at 37° C. with shaking. A 1:1000 dilution of these cultures into LB was exposed to concentration gradients of compounds in 96-well plates (100 μL per well assay volume). Resulting plates were incubated at 37° C. for 24 h without shaking, and OD600 was measured at the end of the incubation. MICs were determined as the lowest concentrations at which OD600 remained at baseline.

A. baumannii = assay: Gram negative MIC protocol (OD600, LB, 24 h); conditions: Acinetobacter baumannii
Experimental: as §1

[1] = Mycobacterium tuberculosis, H37RV
[2] = read-out: MIC E. coli delta-TolC LB Media, E. coli delta-TolC strain, LB media, 24 h, OD600
[3] = read-out: MIC WT E. coli LB Media, wild-type E. coli, LB media, 24 h, OD600
[4] = read-out: MIC A. baumannii LB Media
[5] = Mycobacterium tuberculosis, H37RV, WT H37Rv MTB
[6] = read-out: MIC E. coli delta-TolC LB Media, E. coli delta-TolC, LB media, OD600
[7] = read-out: MIC WT E. coli LB Media, WT E. coli, LB media, OD600
[8] = read-out: MIC A. baumannii LB Media, A. baumannii, LB media, 24 h, OD600

Compound | MIC (H37RvMA; [1]) [µM] | MIC (E. coli; [2]) [µM] | MIC (E. coli; [3]) [µM] | MIC (A. baumannii; [4]) [µM] | MIC (H37RvMA; [5]) [µM] | MIC (E. coli; [6]) [µM] | MIC (E. coli; [7]) [µM] | MIC (A. baumannii; [8]) [µM] | MIC (H37RvMA; WT H37Rv MTB) [µM]
CC(CC1CCCCC1)NCc1ccccc1O (stereo not drawn) [B319] | 150 (≈ 37.1 µg/mL) | 12 (≈ 2.97 µg/mL) | 33 (≈ 8.16 µg/mL) | > 150 | – | – | – | – | –
CC(CC1CCOCC1)NCc1ccccc1 (stereo not drawn) [B29] | – | – | – | – | > 150 | > 150 | > 150 | > 150 | –
OC[C@H](Cc1ccccc1)NCc1ccccc1 [B174] | – | – | – | – | > 150 | > 300 | > 300 | > 300 | –
c1ccc(CNCCc2ccnc3ccccc23)cc1 [B119] | – | – | – | – | > 150 | > 150 | > 150 | > 150 | –
CCOC(=O)COCCOc1ccccc1CNC(C)CC1CCCCC1 (stereo not drawn) [B365] | – | 5 (≈ 1.89 µg/mL) | > 150 | – | > 150 | – | – | > 150 | –
CC1(CNCc2ccccc2)CCCCCC1 [B100] | – | – | – | – | > 150 | > 150 | > 150 | > 150 | –
O=C1c2ccccc2CN1CCC1CCCCC1 [B419, 2-(2-cyclohexylethyl)isoindolin-1-one] | – | – | – | – | 0.6 (≈ 0.146 µg/mL) | 150 (≈ 36.5 µg/mL) | > 150 | > 150 | –
Cc1cccc(COc2ccccc2CNC(C)CC2CCCCC2)c1 (stereo not drawn) [B461, 1-cyclohexyl-N-(2-((3-methylbenzyl)oxy)benzyl)propan-2-amine] | – | – | – | – | 10 (≈ 3.52 µg/mL) | < 1 | 33 (≈ 11.6 µg/mL) | 33 (≈ 11.6 µg/mL) | –
CC(C)(C)OC(=O)N1CCC(CCNCc2ccccc2)CC1 [B216, tert-butyl 4-(2-(benzylamino)ethyl) piperidine-1-carboxylate] | – | > 300 | > 300 | – | > 150 | – | – | > 300 | –
CC(CC1CCCCC1)NCc1ccccc1SCC1CN(C)C(=O)O1 (stereo not drawn) [B407, 5-(((2-(((1-cyclohexylpropan-2-yl)amino)methyl)phenyl)thio)methyl)-3-methyl oxazolidin-2-one] | – | – | – | – | > 150 | 7 (≈ 2.64 µg/mL) | 150 (≈ 56.5 µg/mL) | > 150 | –
O=C1CCC(CCNCc2ccccc2)CC1 [B218, 4-(2-(benzylamino)ethyl) cyclohexanone] | – | > 300 | > 300 | – | > 150 | – | – | > 300 | –
CS(=O)(=O)Cc1ccccc1CNCCC1CCCCC1 [B346] | – | 4 (≈ 1.24 µg/mL) | > 150 | – | > 150 | – | – | 12 (≈ 3.71 µg/mL) | –
COc1ccc(C(C)C(C)NCc2ccccc2)cc1OC (stereo not drawn) [B54] | > 150 | – | – | – | – | > 150 | > 150 | > 150 | –
CC1CCC(NC(=O)NS(=O)(=O)Cc2ccccc2CNC(C)CC2CCCCC2)CC1 (stereo not drawn) [B450, 1-(2-(((1-cyclohexylpropan-2-yl)amino)methyl)phenyl)-N-((4-methylcyclohexyl)carbamoyl)methanesulfonamide] | – | – | – | – | 150 (≈ 69.6 µg/mL) | 150 (≈ 69.6 µg/mL) | > 150 | > 150 | –
COC(=O)c1ccc(COc2ccccc2CNC(C)CC2CCCCC2)o1 (stereo not drawn) [B252] | – | 4 (≈ 1.54 µg/mL) | > 150 | – | 150 (≈ 57.8 µg/mL) | – | – | 150 (≈ 57.8 µg/mL) | –
C1=C(CC2CCCCN2Cc2ccccc2)CCCC1 (stereo not drawn) [B163] | – | – | – | – | > 150 | 300 (≈ 80.8 µg/mL) | > 300 | > 150 | –
CC(NCc1ccccc1)C1Cc2ccccc21 (stereo not drawn) [B110] | – | – | – | – | > 150 | > 150 | > 150 | > 150 | –
Cc1nnc(COc2ccccc2CNC(C)CC2CCCCC2)o1 (stereo not drawn) [B279] | – | 12 (≈ 4.12 µg/mL) | > 150 | – | > 150 | – | – | > 150 | –
CC(C)(CN1CCOCC1)NCc1ccccc1 [B67] | – | – | – | – | > 150 | > 150 | > 150 | > 150 | –
CC(CC1CCCCC1)NCc1ccccc1OC1CCCC1 (stereo not drawn) [B288] | – | 3 (≈ 0.947 µg/mL) | > 150 | – | 91 (≈ 28.7 µg/mL) | – | – | 150 (≈ 47.3 µg/mL) | –

Compound | MIC (H37RvMA; [1]) [µM] | MIC (E. coli; [2]) [µM] | MIC (E. coli; [3]) [µM] | MIC (A. baumannii; [4]) [µM] | MIC (H37RvMA; [5]) [µM] | MIC (E. coli; [6]) [µM] | MIC (E. coli; [7]) [µM] | MIC (A. baumannii; [8]) [µM] | MIC (H37RvMA; WT H37Rv MTB) [µM]
c1ccc(CNC(CC2CCCCC2)C2CC2)cc1 (stereo not drawn) [B167, N-benzyl-2-cyclohexyl-1-cyclopropylethanamine] | – | – | – | – | > 150 | > 300 | > 300 | > 300 | –
CC(CC1CCCCC1)NCc1ccccc1OCc1cc(Br)no1 (stereo not drawn) [B302] | – | < 1 | 150 (≈ 61.1 µg/mL) | – | 55 (≈ 22.4 µg/mL) | – | – | 150 (≈ 61.1 µg/mL) | –
CC(CC1CCCC1)NCc1ccccc1 (stereo not drawn) [B38] | > 150 | – | – | 150 (≈ 32.6 µg/mL) | – | 90 (≈ 19.6 µg/mL) | 91 (≈ 19.8 µg/mL) | – | –
O=C(O)C(CC1CCCCC1)NCc1ccccc1 (stereo not drawn) [B204, 2-(benzylamino)-3-cyclohexylpropanoic acid] | – | > 300 | > 300 | – | – | – | – | > 300 | >150
c1ccc(CNCCc2cccc3ccccc23)cc1 [B192] | – | – | – | – | 33 (≈ 8.63 µg/mL) | 96 (≈ 25.1 µg/mL) | 300 (≈ 78.4 µg/mL) | 300 (≈ 78.4 µg/mL) | –
Cc1noc(C)c1COc1ccccc1CNC(C)CC1CCCCC1 (stereo not drawn) [B306] | – | 12 (≈ 4.28 µg/mL) | > 150 | – | > 150 | – | – | > 150 | –
c1ccc(CNCCC2CCOC2)cc1 (stereo not drawn) [B40] | – | – | – | – | > 150 | > 150 | > 150 | > 150 | –
O=C1Cc2ccccc2CN1CCCC1CCCCC1 [B416, 2-(3-cyclohexylpropyl)-1,4-dihydroisoquinolin-3(2H)-one] | – | – | – | – | 2.5 (≈ 0.679 µg/mL) | 55 (≈ 14.9 µg/mL) | > 150 | > 150 | –
COc1cccc(CNCCC2=CCCCC2)c1 [B143] | – | – | – | – | > 150 | > 150 | > 150 | > 150 | –
c1ccc(CNC2Cc3ccccc3C2)cc1 [B206, N-benzyl-2,3-dihydro-1H-inden-2-amine hydrochloride] | – | > 300 | > 300 | – | > 150 | – | – | > 300 | –
CCc1ccccc1CNCCC1CCCCC1 [B228, 2-cyclohexyl-N-(2-ethylbenzyl)ethanamine hydrochloride] | – | 20 | 170 | – | 91 | – | – | 300 | –
COc1ccc(CNCCC2=CCCCC2)cc1 [B12] | – | – | – | – | > 150 | > 150 | > 150 | > 150 | –
CC1CCCC(CCN2Cc3ccccc3CC2=O)C1 (stereo not drawn) [B464, 2-(2-(3-methylcyclohexyl)ethyl)-1,4-dihydroisoquinolin-3(2H)-one] | – | – | – | – | 2 (≈ 0.543 µg/mL) | 90 (≈ 24.4 µg/mL) | > 150 | > 150 | –
CC(CC1CCCCC1)N1Cc2ccccc2OC1=O (stereo not drawn) [B426, 3-(1-cyclohexylpropan-2-yl)-3,4-dihydro-2H-benzo[e][1,3]oxazin-2-one] | – | – | – | – | 1.7 (≈ 0.465 µg/mL) | 55 (≈ 15 µg/mL) | > 150 | > 150 | –
CC(CC1CCCCC1)NCc1ccccc1OCc1nnn(C)n1 (stereo not drawn) [B322] | – | 4 (≈ 1.37 µg/mL) | 150 (≈ 51.5 µg/mL) | – | > 150 | – | – | 150 (≈ 51.5 µg/mL) | –
COC(=O)c1ccccc1CNCCC1CCCCC1 [B258, methyl 2-((2-cyclohexylethylamino)methyl)benzoate hydrochloride] | – | 100 | > 150 | – | > 150 | – | – | > 150 | –
CCN1CC(COc2ccccc2CNCCC2=CCCCC2)OC1=O (stereo not drawn) [B368] | – | 20 (≈ 7.17 µg/mL) | > 150 | – | > 150 | – | – | > 150 | –
CN1CCC(CNCc2ccccc2)c2ccccc21 (stereo not drawn) [B139] | – | – | – | – | > 150 | > 150 | > 150 | > 150 | –
COc1cc2c(cc1OC)CN(CCNCc1ccccc1)CC2 [B147] | – | – | – | – | > 150 | > 150 | > 150 | > 150 | –
